No end group written: not given here.
How the values were obtained:
AKT Ser473 = assay: Immunoblot of phosphorylated Akt in WT-CST perfused hearts; design: species or system rat; conditions: 110 nM
Method: (§1) Cardiac signaling—Hearts were perfused with or without 110 nM WT-Cts as before. At the end of experiment hearts were snap frozen under liquid nitrogen and homogenized with 1 ml of ice cold 0.2 M sucrose, Tris maleate (pH 7.0) buffer supplemented with 2 mM EDTA, pH 8.0, 1 mM sodium orthovanadate, 10 mM sodium pyrophosphate, 1 mM phenylmethylsulfonyl fluoride, 10 μg/ml leupeptin, 10 μg/ml aprotinin and 0.1 mM 3-isobutyl-1-methylxanthine. SR membrane fractions were isolated from cytosolic proteins as described before (27). Protein content was determined by Bradford assay (BIO-RAD) and 100 μg of cytosolic protein was subjected to SDS-PAGE immunoblot analysis for phosphorylated-ERK, total ERK (P-ERK and T-ERK; Santa Cruz, Calif.). […]
(§2) Statistics—Data are expressed as the mean±SEM. Curve fitting was accomplished in the program Kaleidagraph (Synergy Software, Reading, Pa.). […] For analysis of phosphorylated proteins, levels were quantified using Bio-Rad QuantifyOne and volumes of phosphorylated proteins were divided by the levels of non-phosphorylated proteins to calculate fold activation. Stimulation of protein activity was expressed as fold increase over vehicle-treated control. The means and S.E.M. were calculated for each treatment. […]

ERK1/2 = assay: Immunoblot of phosphorylated ERK1/2 in WT-CST perfused hearts; design: species or system rat; conditions: 110 nM
Method: as §1, §2

[1] = test system: WT and Chga knockout (KO) mice; assay: Plasma catecholamine assay; assay type: in vivo; conditions: CST 40 μg/g bw ip for 30 min
Method: Catecholamine assay following immobilization stress: Mice were anesthetized by inhalation of “Isoflurane, USP” and blood was collected from the left ventricle in potassium EDTA tubes. […] Plasma catecholamine was measured by HPLC connected to an electrochemical detector (Waters 600E Multisolvent Delivery system and Waters 2465 Electrochemical Detector, MA) in a group of restraint mice (non-telemetered). Separation was performed on an Atlantis dC18 column (2.1×150 mm, 3 μm) from Waters. The mobile phase (0.15 ml/min) consisted of phosphate-citrate buffer and 2.2% N, N-Dimethylacetamide and acetonitrile at 95:5 (V/V). An internal standard 3,4-Dihydroxybenzylamine (DHBA, 1 ng) and an antioxidant sodium meta-bisulfite (final concentrations of 0.125 mM) were added to 0.25 ml of plasma. Following the addition of 15 mg of alumina (Aluminium oxide, Activity Grade: Super I, Type WA-4, Sigma-Aldrich, PA), the pH of the solution was raised to pH 8.6 by adding Tris buffer (0.96 M Tris, 50 mM EDTA, pH 8.69). Following a 30 min incubation and centrifugation (5000 rpm, 5 min), the supernatant was discarded and the beads were washed with water. The catecholamine was eluted with […] of 0.1 N HCl supplemented with 0.1 mM sodium meta-bisulfite. The data were analyzed using Empower software. Catecholamine levels were normalized with the recovery of internal standard.

C57/BL/6J mice cornea = assay: Cornea neovascularisation assay; assay type: in vivo; conditions: pellet 500 ng, day 7
Method: Cornea Neovascularisation Assay. Pellets containing 500 ng Catestatin were implanted in C57/BL/6J mice (age of 8 weeks) as described (36). On postoperative day 7 mice received an intravenous injection of 500 μg BS1 lectin conjugated to FITC (Vector Laboratories). After euthanasia, enucleated eyes were fixed in 1% paraformaldehyde, corneas dissected and examined by fluorescence microscopy.

[2] = test system: WT, CgA-KO and HFD fed insulin resistant mice; assay: Blood glucose / glucose tolerance tests; assay type: in vivo
Source text: (§3) Adult WT (C57BL/6) and CgA-KO mice with mixed genetic background (129svJ×C57BL/6) were used in this study. Both WT and KO mice were generated from the original founder carrying mixed genotype (50% 129svJ: 50% C57BL/6) and were maintained by brother/sister mating. Hypertensive CGA-KO mice will serve as a model for hyper insulin sensitivity. WT mice were fed 60% high fat diet (HFD) for 20 weeks. Body weight and blood glucose levels were monitored and glucose and insulin tolerance testa were performed to determine status of insulin resistance. After 20 weeks of HFD feeding mice were injected IP with catestatin (40 μg/gm body weight) twice daily for 7 days. On the 8th day, 12 hours fasted mice were subjected to glucose tolerance tests to determine their insulin sensitivity. Tissues of WT and CgA-KO mice are analyzed AMPK and eNOS signalling by immunoblotting.

eNOS = eNOS signalling by immunoblotting of mouse tissues; assay type: in vivo; conditions: CgA-KO mice
Source text: as §3

EPCs = assay: Effects on EPCs in-vitro; assay type: cell-based

## SSMKLSFRARAYGFRGPGPQL [WT-CST, catestatin]
AKT Ser473
  Phosphorylation of AKT at Ser473: inhibited
ERK1/2
  Phosphorylation of ERK1/2: inhibited
[1]
  Basal plasma norepinephrine and epinephrine: returned to WT level
C57/BL/6J mice cornea
  Angiogenesis in the cornea: induced growth of arteries
[2]; HFD fed insulin resistant mice, 40 μg/gm IP twice daily 7 days
  Peak blood glucose level: reduced
[2]; WT and CgA-KO mice
  Blood glucose level: raised
[2]; insulin-resistant HFD mice
  Reduction of blood glucose level (glucose tolerance tests): 15-20%
eNOS
  eNOS signal: reduced
EPCs
  Effects on EPCs (chemotaxis, incorporation into vascular structures): showed effects on EPCs
